Here are results for four sequences from patent US20040208919A1, “Vaccination against prion diseases” (priority 2002, published 2004).

The assay deals with primary rat hippocampal neurons. The assay is classed as cell-based.

Values joined by “and” are separate entries in the source; they are usually repeats but may differ in a detail not shown here. Equal entries are not always repeated.

Regarding KTNMKHMAGAAAAGAVVGGLG [PrP 106-126], the “Neuronal death, mode and dose dependence” value is given as “occurred by apoptosis in a dose dependent manner”; the “Neurotoxicity compared with the other synthetic PrP fragments” value was “most neurotoxic fragment”.

For the sequence “NGAKALMGGHGATKVMVGAAA [PrP 106-126 scrambled, reference compound]”, the Cell death % was 3 ± 2% and 8 ± 3%.

In the case of WGQGGGTHSQWNKPSKPK [PrP 89-106], the Cell death % is 5 ± 2% and 2 ± 6%.

With WGQPHGGG [PrP 57-64], the Cell death % is 0 ± 5% and 3 ± 4%.
